Our source for the Emax and EC50 values is patent publication US8232284B2, “Heteroaryloxy quinazoline derivative” (MSD K. K., priority 2007, dated 2012).

Structures can show the parent of a compound that is named as a salt.

The target in one assay is T1, recombinant human liver GK (Homo sapiens, UniProt P35557).
T1 construct: made in house; host or cells: E. coli
T1 sequence (P35557 1-466 isoform P35557-2): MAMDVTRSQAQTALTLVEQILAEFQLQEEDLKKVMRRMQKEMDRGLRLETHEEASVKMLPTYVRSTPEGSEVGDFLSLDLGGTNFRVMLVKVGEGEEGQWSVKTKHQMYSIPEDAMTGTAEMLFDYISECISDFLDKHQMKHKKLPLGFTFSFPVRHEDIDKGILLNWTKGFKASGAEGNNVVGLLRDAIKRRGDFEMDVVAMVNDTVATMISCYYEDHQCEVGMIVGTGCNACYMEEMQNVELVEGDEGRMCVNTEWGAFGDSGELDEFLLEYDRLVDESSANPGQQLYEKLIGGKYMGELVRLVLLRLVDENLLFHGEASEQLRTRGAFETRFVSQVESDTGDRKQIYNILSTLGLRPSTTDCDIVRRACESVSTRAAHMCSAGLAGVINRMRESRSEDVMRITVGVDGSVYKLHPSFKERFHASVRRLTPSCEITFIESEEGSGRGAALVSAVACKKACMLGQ
Nature of the assay: Glucokinase-activating effect (Thio-NADH coupled assay with G6PDH, 2.5 mM glucose). It counts as biochemical. The note with it: OD level of DMSO control set as 100%; final glucose concentration 2.5 mM; 30° C. From the text: The excellent glucokinase-activating effect of the compounds of the formula (I) may be determined by a method described in literature (for example, Diabetes, Vol. 45, pp. 1671-1677, 1996), or in accordance with it.
The glucokinase activity may be determined not by directly measuring glucose-6-phosphate but by measuring the level of Thio-NADH, which is produced when a reporter enzyme, glucose-6-phosphate dehydrogenase produces phosphogluconolactone from glucose-6-phosphate, and based on the level, the degree of glucokinase activation by the compound tested may be determined
In this assay, used was a recombinant human liver GK, which was expressed by E. coli as a FLAG fusion protein therein and was purified by ANTIFLAG M2 AFFINITY GEL (Sigma).
Using a flat-bottomed 96-well plate, the assay was carried out at 30° C. 69 μl of an assay buffer (25 mM Hepes Buffer/pH=7.2, 2 mM MgCl2, 1 mM ATP, 0.5 mM TNAD, 1 mM dithiothreitol) was put into the plate, and 1 μl of a DMSO solution of the compound or DMSO alone as a control was added thereto. Next, 20 μl of an enzyme mixture (FLAG-GK, 20 U/ml G6PDH) cooled in ice was added to it, and 10 μl of a substrate, 25 mM glucose was added to it, and the reaction was initiated (final glucose concentration=2.5 mM).
After the start of the reaction, the increase in the absorbance at 405 nm was measured for 12 minutes at intervals of 30 seconds, and the increase for the first 5 minutes was used for assessing the compound tested. FLAG-GK was added so that the absorbance increase after 5 minutes in the presence of 1% DMSO could be from 0.04 to 0.06.
The OD level of the DMSO control was set as 100%; and the OD level of the test compound at different concentrations was determined. From the OD level at each concentration, Emax (%) and EC50 (μM) were computed and used as the index of the GK-activating potency of the compound.
The comparative test was conducted to compare the compound of example 18, 31 and 32 in this invention with the compound (A) in the patent document 1. The test method in vitro was similar to pharmacological experiment 1 (glucokinase-activating effect).
For `CN(C)CCOc1ncc(Oc2ccc3ncnc(Nc4ccn(C)n4)c3c2)cn1` [Example 7, 6-({2-[2-(dimethylamino)ethoxy]pyrimidin-5-yl}oxy)-N-(1-methyl-1H-pyrazol-3-yl)quinazoline-4-amine], the Emax stood at 695%. On the same count and under the same terms, for `CN(C)CCN(C)C(=O)c1ccnc(Oc2ccc3ncnc(Nc4ccn(C)n4)c3c2)c1Cl` [Example 67, 3-chloro-N-[2-(dimethylamino)ethyl]-N-methyl-2-({4-[(1-methyl-1H-pyrazol-3-yl)amino]quinazolin-6-yl}oxy)isonicotinamide] the value was 598%. With `CN(C)CCOc1ccc(Oc2ccc3ncnc(Nc4ccn(C)n4)c3c2)cn1` [Example 3, 6-({6-[2-(dimethylamino)ethoxy]pyridin-3-yl}oxy)-N-(1-methyl-1H-pyrazol-3-yl)quinazoline-4-amine], the Emax came out at 918%.

On to `Cc1cnc(Nc2ncnc3ccc(Oc4ncc(OCCCO)cc4Cl)cc23)cn1` [Example 61, 3-{[5-chloro-6-({4-[(5-methylpyrazin-2-yl)amino]quinazolin-6-yl}oxy)pyridin-3-yl]oxy}propan-1-ol], for which the Emax is 888%. On to `CNCCOc1cnc(Oc2ccc3ncnc(Nc4ccn(C)n4)c3c2)c(C)c1` [Example 70, N-methyl-2-{[5-methyl-6-({4-[(1-methyl-1H-pyrazol-3-yl)amino]quinazolin-6-yl}oxy)pyridin-3-yl]oxy}ethanamine hydrochloride], for which the Emax was 979%.

Staying with this assay, now noted: final glucose concentration 2.5 mM; 30° C.; read-out: EC50.
For the molecule `CCN1CC(Oc2cnc(Oc3ccc4ncnc(Nc5ccn(C)n5)c4c3)c(F)c2)C1` [Example 25, 6-({5-[(1-ethylazetidin-3-yl)oxy]-3-fluoropyridin-2-yl}oxy)-N-(1-methyl-1H-pyrazol-3-yl)quinazoline-4-amine hydrochloride], the EC50 came to 230 nM. For the molecule `CN(C)CCOc1ncc(Oc2ccc3ncnc(Nc4ccn(C)n4)c3c2)cn1` [Example 7, 6-({2-[2-(dimethylamino)ethoxy]pyrimidin-5-yl}oxy)-N-(1-methyl-1H-pyrazol-3-yl)quinazoline-4-amine], the EC50 turned out to be 6930 nM. Still for that read-out and setting: for `CN(C)CCN(C)C(=O)c1ccnc(Oc2ccc3ncnc(Nc4ccn(C)n4)c3c2)c1Cl` [Example 67, 3-chloro-N-[2-(dimethylamino)ethyl]-N-methyl-2-({4-[(1-methyl-1H-pyrazol-3-yl)amino]quinazolin-6-yl}oxy)isonicotinamide] the value was 6090 nM.

Regarding `Cc1cnc(Nc2ncnc3ccc(Oc4ncc(OCCN(C)C)cc4C)cc23)cn1` [Example 34, 6-({5-[2-(dimethylamino)ethoxy]-3-methylpyridin-2-yl}oxy)-N-(5-methylpyrazin-2-yl)quinazoline-4-amine hydrochloride], the EC50 is 70 nM.

As to `Cc1cc(OCCO)cnc1Oc1ccc2ncnc(Nc3cnn(C)n3)c2c1` [Example 84, 2-{[5-methyl-6-({4-[(2-methyl-2H-1,2,3-triazol-4-yl)amino]quinazolin-6-yl}oxy)pyridin-3-yl]oxy}ethanol], the EC50 came out at 40 nM.

Regarding `CN(C)CCCN(C)S(=O)(=O)c1cnc(Oc2ccc3ncnc(Nc4ccn(C)n4)c3c2)c(Cl)c1` [Example 64, 5-chloro-N-[3-(dimethylamino)propyl]-N-methyl-6-({4-[(1-methyl-1H-pyrazol-3-yl)amino]quinazolin-6-yl}oxy)pyridine-3-sulfonamide], the EC50 was 1140 nM. `CC(C)NCCOc1ccc(Oc2ccc3ncnc(Nc4cnn(C)n4)c3c2)nc1` [Example 76, N-(2-{[6-({4-[(2-methyl-2H-1,2,3-triazol-4-yl)amino]quinazolin-6-yl}oxy)pyridin-3-yl]oxy}ethyl)propan-2-amine hydrochloride]: the EC50 stood at 230 nM.

With `CN(C)CCCOc1ccc(Oc2ccc3ncnc(Nc4ccn(C)n4)c3c2)nc1` [Example 4, 6-({5-[3-(dimethylamino)propoxy]pyridin-2-yl}oxy)-N-(1-methyl-1H-pyrazol-3-yl)quinazoline-4-amine], the EC50 came to 380 nM. Consider `CN(C)CCOc1ccc(Oc2ccc3ncnc(Nc4ccn(C)n4)c3c2)cn1` [Example 3, 6-({6-[2-(dimethylamino)ethoxy]pyridin-3-yl}oxy)-N-(1-methyl-1H-pyrazol-3-yl)quinazoline-4-amine], for which the EC50 was determined as 1740 nM. Same read-out and setting: to `CN(C)CCOc1cnc(Oc2ccc3ncnc(Nc4ccn(C)n4)c3c2)nc1` [Example 8, 6-({5-[2-(dimethylamino)ethoxy]pyrimidin-2-yl}oxy)-N-(1-methyl-1H-pyrazol-3-yl)quinazoline-4-amine] belongs 1320 nM; to `CCNCCCOc1cnc(Oc2ccc3ncnc(Nc4ccn(C)n4)c3c2)c(Cl)c1` [Example 20, 6-({3-chloro-5-[3-(ethylamino)propoxy]pyridin-2-yl}oxy)-N-(1-methyl-1H-pyrazol-3-yl)quinazoline-4-amine hydrochloride], 40 nM; to `Cc1cnc(Nc2ncnc3ccc(Oc4ncc(OCCO)cc4Cl)cc23)cn1` [Example 58, 2-{[5-chloro-6-({4-[(5-methylpyrazin-2-yl)amino]-1quinazolin-6-yl}oxy)pyridin-3-yl]oxy}ethanol], 200 nM. Regarding `Cc1cnc(Nc2ncnc3ccc(Oc4ncc(OCCN(C)C)cc4Cl)cc23)cn1` [Example 35, 6-({3-chloro-5-[2-(dimethylamino)ethoxy]pyridin-2-yl}oxy)-N-(5-methylpyrazin-2-yl)quinazoline-4-amine], the EC50 amounted to 100 nM. For the molecule `COc1ccc2nc(Nc3ncnc4ccc(Oc5ncc(OCCN(C)C)cc5Cl)cc34)sc2n1` [Example 46, 6-({3-chloro-5-[2-(dimethylamino)ethoxy]pyridin-2-yl}oxy)-N-(5-methoxy-[1,3]thiazolo[5,4-b]pyridin-2-yl)quinazoline-4-amine], the EC50 was 110 nM. Regarding `Cc1cnc(Nc2ncnc3ccc(Oc4ncc(OCCCO)cc4Cl)cc23)cn1` [Example 61, 3-{[5-chloro-6-({4-[(5-methylpyrazin-2-yl)amino]quinazolin-6-yl}oxy)pyridin-3-yl]oxy}propan-1-ol], the EC50 was found to be 410 nM. As to `Cc1nsc(Nc2ncnc3ccc(Oc4ccc(OCCN(C)C)cn4)cc23)n1` [Example 47, 6-({5-[2-(dimethylamino)ethoxy]pyridin-2-yl}oxy)-N-(3-methyl-1,2,4-thiadiazol-5-yl)quinazoline-4-amine], the EC50 was found to be 290 nM. The same measure, in the same setting: to `CN(C)CCOc1cnc(Oc2ccc3ncnc(Nc4ccn(C)n4)c3c2)c(Cl)c1` [Example 1, 6-({3-chloro-5-[2-(dimethylamino)ethoxy]pyridin-2-yl}oxy)-N-(1-methyl-1H-pyrazol-3-yl)quinazoline-4-amine] belongs 80 nM. For the molecule `CNCCOc1cnc(Oc2ccc3ncnc(Nc4ccn(C)n4)c3c2)c(C)c1` [Example 70, N-methyl-2-{[5-methyl-6-({4-[(1-methyl-1H-pyrazol-3-yl)amino]quinazolin-6-yl}oxy)pyridin-3-yl]oxy}ethanamine hydrochloride], the EC50 amounted to 26 nM. Regarding `CC(C)NCCOc1ccc(Oc2ccc3ncnc(Nc4ccn(C)n4)c3c2)nc1` [Example 5, 6-({5-[2-(isopropylamino)ethoxy]pyridin-2-yl}oxy)-N-(1-methyl-1H-pyrazol-3-yl)quinazoline-4-amine], the concentration giving a half-maximal response (EC50) was 260 nM.

With `Cc1cnc(Nc2ncnc3ccc(Oc4ccc(OCCNC(C)C)cn4)cc23)cn1` [Example 37, 6-({5-[2-(isopropylamino)ethoxy]pyridin-2-yl}oxy)-N-(5-methylpyrazin-2-yl)quinazoline-4-amine], the EC50 is 380 nM. Turning to `Cc1cnc(Nc2ncnc3ccc(Oc4ncc(OCCNC(C)C)cc4F)cc23)cn1` [Example 40, 6-({3-fluoro-5-[2-(isopropylamino)ethoxy]pyridin-2-yl}oxy)-N-(5-methylpyrazin-2-yl)quinazoline-4-amine hydrochloride], the EC50 was 350 nM. On to `Cc1cc(OCCNC(C)C)cnc1Oc1ccc2ncnc(Nc3cnn(C)n3)c2c1` [Example 81, N-(2-{[5-methyl-6-({4-[(2-methyl-2H-1,2,3-triazol-4-yl)amino]quinazolin-6-yl}oxy)pyridin-3-yl]oxy}ethyl)propan-2-amine hydrochloride], for which the EC50 was 13 nM.

With `Cn1ccc(Nc2ncnc3ccc(Oc4ncc(OCCO)cc4F)cc23)n1` [Example 54, 2-{[5-fluoro-6-({-4-[(1-methyl-1H-pyrazol-3-yl)amino]quinazolin-6-yl}oxy)pyridin-3-yl]oxy}ethanol], the concentration giving a half-maximal response (EC50) is 360 nM. The same measure, in the same setting: to `CN(C)CCOc1cnc(Cl)c(Oc2ccc3ncnc(Nc4ccn(C)n4)c3c2)c1` [Example 2, 6-({2-chloro-5-[2-(dimethylamino)ethoxy]pyridin-3-yl}oxy)-N-(1-methyl-1H-pyrazol-3-yl)quinazoline-4-amine] belongs 420 nM; to `CN(C)CCOc1cnc(Oc2ccc3ncnc(Nc4cnccn4)c3c2)c(Cl)c1` [Example 44, 6-({3-chloro-5-[2-(dimethylamino)ethoxy]pyridin-2-yl}oxy)-N-pyrazin-2-ylquinazoline-4-amine], 260 nM. On to `Cn1ccc(Nc2ncnc3ccc(Oc4ncc(OC5CNC5)cc4Cl)cc23)n1` [Example 23, 6-{[5-(azetidin-3-yloxy)-3-chloropyridin-2-yl]oxy}-N-(1-methyl-1H-pyrazol-3-yl)quinazoline-4-amine hydrochloride], for which the EC50 was determined as 50 nM.

In general, Emax refers to the greatest response seen or fitted, relative to the assay's reference. In general, EC50 refers to the concentration needed to bring the measured effect to its halfway point.
